Experimental data from patent US9068970B2, “Efficient and effective supplement screening for the development of chemically defined media in cell culture” (Abbvie Inc., priority 2010, dated 2015).
Where two headings read alike, the source gives them in different places.

What was measured:
Assay type in all cases: cell-based
[1] = tested on: recombinant IgG producing Chinese Hamster Ovary cell line (CHO cell line #1); assay: JMP7 statistical identification of high performance media supplementation from a 15-supplement screening experiment
Protocol: (§1) Standard Analysis of Variance (ANOVA) was used to measure the significance of individual supplements and their respective interactions towards the resulting cell culture technique performance. Individual analyses were conducted on both peak viable cell density and harvest titer for each of the respective screening experiments. Three different levels of each media supplement were used in these experiments: unsupplemented (Level 1), lightly supplemented (Level 2), and heavily supplemented (Level 3). […] The optimization subroutine intrinsic to the statistics software was used to analyze the screening dataset determine the identity of a high performance media blend. It is important to note that the selection method is a mathematical exercise which can lead to multiple blends identified as having the highest performance parameters, and the results are highly dependent on the initial first guess.
Fifteen of these supplements, or groups of supplements, were screened in a separate statistically designed experiment for the final determination of high performance media blends for the maximization of peak VCD, harvest titer, and both of these variables simultaneously.
The JMP7 statistical software program was further used to identify the high performance media supplementation for maximizing peak VCD, harvest titer, and both simultaneously.

[2] = tested on: recombinant IgG producing Chinese Hamster Ovary cell line (CHO cell line #1); assay: 24-well plate media supplement screening: peak viable cell density (CellTiter 96 AQueous)
Protocol: (§2) 24-well plates were utilized at a working volume of 1.5 mL per well to serve as the platform for media supplement screening. An in-house, base chemically defined media (CDM #1) was used as the basal media for the purposes of the experiments. A recombinant IgG producing Chinese Hamster Ovary cell line (CHO cell line #1) was used for the media supplement screening phase of the experiments.
All 24-well plate screening experiments were designed using JMP7 commercially available statistics software (Cary, N.C.) using custom experimental options. Six individual media supplement screening experiments were performed to test over a hundred different supplements in statistically designed experiments and in a serial fashion. All screening experiments were performed at […] cultured at 210 rpm on a shaker table in a 5% humidified CO2 incubator. Gas permeable, rayon film plate covers (VWR International, Radnor, Pa., Catalog #60941-086) were employed as necessary to provide a sterile barrier between the well plates, the plastic plate cover, and the culture atmosphere. Supplement solutions were manually pipetted into the respective plate wells using concentrated, sterile stock solutions. The comprehensive list of media supplements evaluated for cell culture process improvement is shown below in Table 2:
(§3) Two cell culture performance indicators were measured in the high-throughput screening experiments: peak viable cell density and harvest titer. Time point samples were withdrawn from each of the respective plate wells on Days 6, 7, and 8 post inoculation and measured for their respective viable cell densities spectrophotometrically via the CellTiter 96 AQueous Solution Cell Proliferation Assay Kits™ (Promega, Madison, Wis.). Harvest Titer measurements were conducted via high performance liquid chromatography (HPLC) with a Poros A™ affinity column (Applied Biosystems, Foster City, Calif.). All experimental wells supplemented with a particular combination of media compounds were compared to an unsupplemented control, with the results expressed as relative values relative to the control.
(§4) Two cell culture performance indicators were measured in the high-throughput screening experiments as well as media verification experiments; peak viable cell density (VCD) and harvest titer. […] A few days after the last cell count measurement sample the plates were centrifuged and the supernatant was collected and stored at −80° C. for future analysis. Harvest titer measurements were conducted via high performance liquid chromatography (HPLC) with a Poros A™ affinity column (Applied Biosystems, Foster City, Calif.). All experimental wells supplemented with a particular combination of media compounds were compared to an unsupplemented control, with the results expressed as values relative to the control. For the media verification experiments in larger-scale shaker and spinner flasks, viable cell density and viability were measured via Cedex automated cell counters (Roche Applied Science, Indianapolis, Ind.). Harvest titer measurements were similarly measured via HPLC.
as §1

[3] = tested on: recombinant IgG producing Chinese Hamster Ovary cell line (CHO cell line #1); assay: 24-well plate media supplement screening: harvest titer (HPLC, Poros A affinity column)
Protocol: as §2
All 24-well plate screening experiments were designed using JMP7 commercially available statistics software (Cary, N.C.) using custom experimental options. Six individual media supplement screening experiments were performed to test over a hundred different supplements in statistically designed experiments and in a serial fashion. […] Supplement solutions were manually pipetted into the respective plate wells using concentrated, sterile stock solutions. The comprehensive list of media supplements evaluated for cell culture process improvement is shown below in Table 2:
as §3, §4, §1
The aforementioned supplements were evaluated for improvements in cell culture technique performance.

[4] = tested on: recombinant IgG producing Chinese Hamster Ovary cell line (CHO cell line #1); assay: Supplement screening: process performance (peak VCD and/or harvest titer) by inspectional/statistical analysis
Protocol: as §1, with “guess. Three particular high performance blends were identified for further evaluation: […] The supplements whose relative concentrations supported a distinct pattern of either increasing or decreasing process performance were categorized into the clustered classification. […] These supplements were either compounds or groups of similar compounds such as polyamines, essential amino acids, and vitamins.” for “guess.”

[5] = predicted amount for addition into the unsupplemented control media
[6] = HTS experiments, CDM #1, relative to unsupplemented control
[7] = univariate analysis of varying supplement concentrations
[8] = range given, variability in culture volumes

Molecule | Concentration Target (Range) for Increase of Harvest Titer [1, 5] | Concentration Target (Range) for Increase of Peak VCD [1, 5] | Concentration Target (Range) for Increase of Peak VCD and Harvest Titer [1, 5] | Effect on Peak VCD [2, 6] | Effect on Harvest Titer [3, 6] | Process Performance Pattern [4, 7] | Concentration Range for Increase of Peak VCD [1, 8] | Concentration Target (Range) for Increase of Harvest Titer [1] | Concentration Target (Range) for Increase of Peak VCD [1] | Concentration Target (Range) for Increase of Peak VCD and Harvest Titer [1] | Effect on Peak VCD [2] | Effect on Harvest Titer [3] | Process Performance Pattern [4] | Concentration Range for Increase of Harvest Titer [1, 8] | Concentration Range for Increase of Peak VCD and Harvest Titer [1, 8]
OC[C@H]1O[C@@H]2O[C@H]3[C@H](O)[C@@H](O)[C@@H](O[C@H]4[C@H](O)[C@@H](O)[C@@H](O[C@H]5[C@H](O)[C@@H](O)[C@@H](O[C@H]6[C@H](O)[C@@H](O)[C@@H](O[C@H]7[C@H](O)[C@@H](O)[C@@H](O[C@H]8[C@H](O)[C@@H](O)[C@@H](O[C@H]1[C@H](O)[C@H]2O)O[C@@H]8CO)O[C@@H]7CO)O[C@@H]6CO)O[C@@H]5CO)O[C@@H]4CO)O[C@@H]3CO [β-cyclodextrin] | 0 g/L | +0.16 (0.14-0.18) g/L | 0 g/L | Increase | Increase | Wide dispersal | – | – | – | – | – | – | – | – | –
Cc1cn([C@H]2C[C@H](O)[C@@H](CO)O2)c(=O)[nH]c1=O [Thymidine] | – | – | – | No change | Decrease | Wide dispersal | (1.75 × 10^−3-2.25 × 10^−3) g/L | – | – | – | – | – | – | – | –
O=P(O)(O)O [Potassium phosphate] | – | – | – | – | – | – | – | +0.09 (0.08-0.10) g/L | +0.10 (0.09-0.12) g/L | +0.10 (0.09-0.12) g/L | Increase | Decrease | Clustered | – | –
Calcium pantothenate | 0 g/L | +0.15 (0.13-0.17) g/L | 0 g/L | Increase | No change | Wide dispersal | – | – | – | – | – | – | – | – | –
Manganese chloride | +1.07 × 10^−4 g/L | +6.67 × 10^−5^ g/L | 0 g/L | Increase | No change | Wide dispersal | (5.91 × 10^−5-7.59 × 10^−5) g/L | – | – | – | – | – | – | (9.46 × 10^−5-1.21 × 10^−4) g/L | –
OC[C@H]1O[C@@H]2O[C@H]3[C@H](O)[C@@H](O)[C@@H](O[C@H]4[C@H](O)[C@@H](O)[C@@H](O[C@H]5[C@H](O)[C@@H](O)[C@@H](O[C@H]6[C@H](O)[C@@H](O)[C@@H](O[C@H]7[C@H](O)[C@@H](O)[C@@H](O[C@H]1[C@H](O)[C@H]2O)O[C@@H]7CO)O[C@@H]6CO)O[C@@H]5CO)O[C@@H]4CO)O[C@@H]3CO [α-cyclodextrin] | 0 g/L | +0.16 (0.14-0.18) g/L | 0 g/L | Increase | Increase | Wide dispersal | – | – | – | – | – | – | – | – | –
[Cl-].[Cl-].[Zn+2] [Zinc chloride] | +5.46 × 10^−3 g/L | +2.05 × 10^−3 g/L | +5.12 × 10^−3 g/L | No change | Increase | Clustered | (1.82 × 10^−3-2.33 × 10^−3) g/L | – | – | – | – | – | – | (4.85 × 10^−3-6.22 × 10^−3) g/L | (4.54 × 10^−3-5.83 × 10^−3) g/L
OC1C(O)C(O)C(O)C(O)C1O (stereo not drawn) [i-inositol] | +0.05 (0.05-0.06) g/L | +0.11 (0.09-0.12) g/L | +0.19 (0.17-0.22) g/L | No change | No change | Wide dispersal | – | – | – | – | – | – | – | – | –
O=S(=O)([O-])[O-].[Cu+2] [Cupric sulfate] | – | – | – | – | – | – | – | 0 g/L | +0.02 g/L | 0 g/L | Increase | Decrease | Wide dispersal | – | –
